# Source: patent US11634447B2 (priority 2012, dated 2023)
# Values joined by “and” are separate entries in the source; they are usually repeats but may differ in a detail not shown here. Equal entries are not always repeated.
# Target: T1, FimH-CRD (Escherichia coli, UniProt P08191)
# T1 construct: The first 177 amino acids of the FimH protein are expressed as a fusion protein; thrombin tag (printed as 'fusion protein with thrombin') (cleaved yes); made in house; host or cells: bacteria (pET21b plasmid)
# Assay: Competitive binding assay by fluorescence polarization, assay 1 (compounds prepared by manual dilution)
# Design: species or system E. coli
# Conditions: Assay 1 Kd, 5 nM Alexa 647 mannoside probe, 60 nM FimH-CRD, replicate values in one cell
# Experimental: The first 177 amino acids of the FimH protein are expressed as a fusion protein with thrombin in a pET21b plasmid in bacteria. This FimH protein sequence contains the carbohydrate recognition domain (CRD) and shall be termed FimH-CRD. Following bacterial expression of the protein, the FimH-CRD protein is purified to homogeneity and the thrombin tag removed by protease cleavage. A competitive binding assay by fluorescence polarization is performed using 5 nM of the Alexa 647 mannoside probe and 60 nM of the FimH-CRD. The samples are assayed in a low volume 384 well microtiter plate in a final volume of 20 μl. The final assay buffer conditions are the following, 50 mM Tris-Cl, ph 7.0, 100 mM NaCl, 1 mM EDTA, 5 mM β-mercaptoethanol, 0.05% BSA and 2.5% DMSO. Two assays are performed for FimH, termed assay 1 or assay 2. The assay conditions are the same for both assays except the following: assay 1 has compounds prepared by manual dilution in a serial dilution factor with 12-point dose response while assay 2 has compounds prepared by a robotics system also through a serial dilution factor (12 point dose response) and initially prepared in duplicate in 384 well-Corning polypropylene round bottom plates. The assay 2 plates have compound which is then frozen and must be thawed prior to use. Initially the Alexa 647 probe and the FimH-CRD are added to the assay buffer and then 0.5 μl of test compound (assay 1 or 2) between 0.4 nM to 75 μM final concentration are added (12 point titration with 3-fold serial dilution). Control wells for the Alexa 647 probe are prepared with the same conditions except for the addition of the FimH-CRD protein. Plates are then incubated for 5 hrs at room temperature in the dark and under humid conditions to prevent drying. Plates are read using the SpectraMax Paradigm multi-mode plate reader and the appropriate fluorescent polarization detection cartridge (Alexa-647).
# Alexa 647 mannoside probe is prepared using the similar procedure reported for FAM mannoside (Han, Z. et. al., 2010, J. Med. Chem., 53, 4779) and is described in the scheme below.
# To a blue colored stirred solution of (2S,3S,4S,5S,6R)-2-(4-aminobutoxy)-6-(hydroxymethyl)tetrahydropyran-3,4,5-triol (2.21 mg, 0.009 mmol) and the (2E)-2-[(2E,4E)-5-[3,3-dimethyl-5-sulfonato-1-(3-sulfonatopropyl)indol-1-ium-2-yl]penta-2,4-dienylidene]-3-[6-(2,5-dioxopyrrolidin-1-yl)oxy-6-oxo-hexyl]-3-methyl-1-(3-sulfonatopropyl)indoline-5-sulfonate (Potassium Ion (3)) (4.9 mg, 0.0044 mmol) in DMF (44 μL) is added Et3N (5.4 mg, 7.0 μL, 0.053 mmol) at RT. The solution is stirred at room temperature over night, concentrated, dissolved in water and purified on 12 g C-18 silica gel cartridge on Isolera system using acetonitrile in water (0 to 40%, 10 CV) and followed by lyophilization to afford Alexa 647 mannoside probe (3.3 mg, 34%) as deep blue solid.
# The Kd values of the compounds are determined from dose response curves using twelve concentrations per compound in duplicate. Curves are fitted to data points using Fluorescence Polarization competitive displacement analysis, and Kds are interpolated from the resulting curves using GraphPad Prism software, version […] (GraphPad software Inc., San Diego, Calif., USA).
# T1 sequence (P08191 22-177): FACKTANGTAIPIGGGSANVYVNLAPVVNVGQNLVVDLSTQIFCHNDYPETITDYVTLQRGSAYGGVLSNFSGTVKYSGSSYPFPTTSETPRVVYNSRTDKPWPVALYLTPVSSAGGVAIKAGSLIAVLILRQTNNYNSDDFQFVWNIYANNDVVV
row,SMILES,Kd
1,OC[C@H]1O[C@H](c2cccc([C@H]3O[C@H](CO)[C@@H](O)[C@H](O)[C@@H]3O)c2)[C@@H](O)[C@@H](O)[C@@H]1O [Compound 2],125 nM and 62 nM
2,OC[C@H]1O[C@H](c2cc([C@H]3O[C@H](CO)[C@@H](O)[C@H](O)[C@@H]3O)cc(C(F)(F)F)c2)[C@@H](O)[C@@H](O)[C@@H]1O [Compound 3],51 nM and 40 nM
3,CC(C)Oc1ccc([C@H]2O[C@H](CO)[C@@H](O)[C@H](O)[C@@H]2O)cc1[C@H]1O[C@H](CO)[C@@H](O)[C@H](O)[C@@H]1O [Compound 4],68 nM and 96 nM
4,"O=C(Nc1ccc(NC(=O)c2cccc([C@H]3O[C@H](CO)[C@@H](O)[C@H](O)[C@@H]3O)c2)cc1)c1cccc([C@H]2O[C@H](CO)[C@@H](O)[C@H](O)[C@@H]2O)c1 [Compound 7, (3-[(2R,3S,4R,5S,6R)-3,4,5-Trihydroxy-6-(hydroxymethyl)tetrahydropyran-2-yl]-N-[4-[[3-[(2R,3S,4R,5S,6R)-3,4,5-trihydroxy-6-(hydroxymethyl)tetrahydropyran-2-yl]benzoyl]amino]phenyl]benzamide)]",17 nM and 11 nM
5,"O=C(NCCNC(=O)c1cccc([C@H]2O[C@H](CO)[C@@H](O)[C@H](O)[C@@H]2O)c1)c1cccc([C@H]2O[C@H](CO)[C@@H](O)[C@H](O)[C@@H]2O)c1 [Compound 8, (R,R,S,R,S)-N,N′-(Ethane-1,2-diyl)bis(3-((2R,3S,4R,5S,6R)-3,4,5-trihydroxy-6-(hydroxymethyl)tetrahydro-2H-pyran-2-yl)benzamide)]",16 nM and 19 nM
6,"O=C(NCCCCNC(=O)c1cccc([C@H]2O[C@H](CO)[C@@H](O)[C@H](O)[C@@H]2O)c1)c1cccc([C@H]2O[C@H](CO)[C@@H](O)[C@H](O)[C@@H]2O)c1 [Compound 10, (R,R,S,R,S)-N,N′-(Butane-1,4-diyl)bis(3-((2R,3S,4R,5S,6R)-3,4,5-trihydroxy-6-(hydroxymethyl)tetrahydro-2H-pyran-2-yl)benzamide)]",9 nM and 15 nM
7,"O=C(NCCCCCCNC(=O)c1cccc([C@H]2O[C@H](CO)[C@@H](O)[C@H](O)[C@@H]2O)c1)c1cccc([C@H]2O[C@H](CO)[C@@H](O)[C@H](O)[C@@H]2O)c1 [Compound 12, (R,R,S,R,S)-N,N′-(Hexane-1,6-diyl)bis(3-((2R,3S,4R,5S,6R)-3,4,5-trihydroxy-6-(hydroxymethyl)tetrahydro-2H-pyran-2-yl)benzamide)]",14 nM and 18 nM
8,"O=C(NCCCCCCCNC(=O)c1cccc([C@H]2O[C@H](CO)[C@@H](O)[C@H](O)[C@@H]2O)c1)c1cccc([C@H]2O[C@H](CO)[C@@H](O)[C@H](O)[C@@H]2O)c1 [Compound 13, (R,R,S,R,S)-N,N′-(Heptane-1,7-diyl)bis(3-((2R,3S,4R,5S,6R)-3,4,5-trihydroxy-6-(hydroxymethyl)tetrahydro-2H-pyran-2-yl)benzamide)]",17 nM and 12 nM
9,"O=C(NCCOCCOCCNC(=O)c1cccc([C@H]2O[C@H](CO)[C@@H](O)[C@H](O)[C@@H]2O)c1)c1cccc([C@H]2O[C@H](CO)[C@@H](O)[C@H](O)[C@@H]2O)c1 [Compound 15, (R,R,S,R,S)-N,N′-((Ethane-1,2-diylbis(oxy))bis(ethane-2,1-diyl))bis(3-((2R,3S,4R,5S,6R)-3,4,5-trihydroxy-6-(hydroxymethyl)tetrahydro-2H-pyran-2-yl)benzamide)]",11 nM and 15 nM
10,"OC[C@H]1O[C@H](Oc2cccc([C@H]3O[C@H](CO)[C@@H](O)[C@H](O)[C@@H]3O)c2)[C@@H](O)[C@@H](O)[C@@H]1O [Compound 17, ((2R,3S,4R,5S,6R)-2-(Hydroxymethyl)-6-[3-[(2R,3S,4S,5S,6R)-3,4,5-trihydroxy-6-(hydroxymethyl)tetrahydropyran-2-yl]oxyphenyl]tetrahydropyran-3,4,5-triol)]",< 5 nM and 6 nM
11,"OC[C@H]1O[C@H](n2cc(-c3ccc(-c4cn([C@H]5O[C@H](CO)[C@@H](O)[C@H](O)[C@@H]5O)nn4)cc3)nn2)[C@@H](O)[C@@H](O)[C@@H]1O [Compound 18, ((2R,3S,4S,5S,6S)-2-(Hydroxymethyl)-6-[4-[4-[1-[(2S,3S,4S,5S,6R)-3,4,5-trihydroxy-6-(hydroxymethyl)tetrahydropyran-2-yl]triazol-4-yl]phenyl]triazol-1-yl]tetrahydropyran-3,4,5-triol)]",1060 nM and 1020 nM
12,C#CCN(Cc1cn([C@H]2O[C@H](CO)[C@@H](O)[C@H](O)[C@@H]2O)nn1)Cc1cn([C@H]2O[C@H](CO)[C@@H](O)[C@H](O)[C@@H]2O)nn1 [Compound 20],58 nM and 96 nM
13,"OC[C@H]1O[C@H](c2ccc(-c3cn([C@H]4O[C@H](CO)[C@@H](O)[C@H](O)[C@@H]4O)nn3)cc2)[C@@H](O)[C@@H](O)[C@@H]1O [Compound 21, ((2R,3S,4R,5S,6R)-2-(Hydroxymethyl)-6-(4-(1-((2S,3S,4S,5S,6R)-3,4,5-trihydroxy-6-(hydroxymethyl)tetrahydro-2H-pyran-2-yl)-1H-1,2,3-triazol-4-yl)phenyl)tetrahydro-2H-pyran-3,4,5-triol)]",< 5 nM (2×) and 9 nM
14,"Cc1cc(/C=C/C[C@H]2O[C@H](CO)[C@@H](O)[C@H](O)[C@@H]2O)cc(C)c1/C=C/C[C@H]1O[C@H](CO)[C@@H](O)[C@H](O)[C@@H]1O [Compound 31, ((2R,3S,4R,5S,6R)-2-[(E)-3-[3,5-Dimethyl-4-[(E)-3-((2R,3S,4R,5S,6R)-3,4,5-trihydroxy-6-(hydroxymethyl)tetrahydropyran-2-yl]prop-1-enyl]phenyl]allyl]-6-(hydroxymethyl)tetrahydropyran-3,4,5-triol)]",< 5 nM
15,"OC[C@H]1O[C@H](C/C=C/c2ccc(C#Cc3ccc([C@H]4O[C@H](CO)[C@@H](O)[C@H](O)[C@@H]4O)cc3)cc2)[C@@H](O)[C@@H](O)[C@@H]1O [Compound 34, ((2R,3 S,4R,5S,6R)-2-(Hydroxymethyl)-6-[(E)-3-[4-[2-[4-[(2R,3S,4R,5S,6R)-3,4,5-trihydroxy-6-(hydroxymethyl)tetrahydropyran-2-yl]phenyl]ethynyl]phenyl]allyl]tetrahydropyran-3,4,5-triol)]",< 5 nM and 6 nM
16,"OC[C@H]1O[C@H](c2ccc(-n3cc([C@H]4O[C@H](CO)[C@@H](O)[C@H](O)[C@@H]4O)nn3)cc2)[C@@H](O)[C@@H](O)[C@@H]1O [Compound 36, ((2R,3S,4R,5S,6R)-2-(Hydroxymethyl)-6-[4-[4-[(2R,3S,4R,5S,6R)-3,4,5-trihydroxy-6-(hydroxymethyl)tetrahydropyran-2-yl]triazol-1-yl]phenyl]tetrahydropyran-3,4,5-triol)]",6 nM and 14 nM and < 5 nM
17,"O=C(Nc1ccc([C@H]2O[C@H](CO)[C@@H](O)[C@H](O)[C@@H]2O)cc1)c1cccc([C@H]2O[C@H](CO)[C@@H](O)[C@H](O)[C@@H]2O)c1 [Compound 39, (3-[(2R,3S,4R,5S,6R)-3,4,5-Trihydroxy-6-(hydroxymethyl)tetrahydropyran-2-yl]-N-[4-[(2R,3S,4R,5S,6R)-3,4,5-trihydroxy-6-(hydroxymethyl)tetrahydropyran-2-yl]phenyl]benzamide)]",29 nM and 46 nM
18,"O=C(C[C@H]1O[C@H](CO)[C@@H](O)[C@H](O)[C@@H]1O)Nc1ccc(NC(=O)C[C@H]2O[C@H](CO)[C@@H](O)[C@H](O)[C@@H]2O)cc1 [Compound 43, (2-[(2R,3S,4R,5S,6R)-3,4,5-Trihydroxy-6-(hydroxymethyl)tetrahydropyran-2-yl]-N-[4-[[2-[(2R,3S,4R,5,6R)-3,4,5-trihydroxy-6-(hydroxymethyl)tetrahydropyran-2-yl]acetyl]amino]phenyl]acetamide)]",20 nM and 27 nM

# Same assay, conditions: read-out: Assay 1 Kd, 5 nM Alexa 647 mannoside probe, 60 nM FimH-CRD, replicate values in one cell
row,SMILES,Kd [nM]
1,"Cc1cc(/C=C/C[C@H]2O[C@H](CO)[C@@H](O)[C@H](O)[C@@H]2O)cc(C)c1/C=C/C[C@H]1O[C@H](CO)[C@@H](O)[C@H](O)[C@@H]1O [Compound 31, ((2R,3S,4R,5S,6R)-2-[(E)-3-[3,5-Dimethyl-4-[(E)-3-((2R,3S,4R,5S,6R)-3,4,5-trihydroxy-6-(hydroxymethyl)tetrahydropyran-2-yl]prop-1-enyl]phenyl]allyl]-6-(hydroxymethyl)tetrahydropyran-3,4,5-triol)]",< 5

# System: bacterial strain LF82 binding to the glycoprotein BSA-(Mannose)3
# Assay: Bacterial Binding Assay (BBA)
# Assay type: cell-based, Escherichia coli
# Conditions: read-out: Bacterial Binding Assay IC50, LF82/Luciferase strain binding to BSA-(Man)3 coated plates, luminescence
# Summary of the method: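 Inhibition of LF82/luciferase E. coli adhesion is read as luminescence after washing off unbound cells. Compound and bacteria (10^7 per well) are co-incubated 40-75 min at room temperature on wells coated with 0.5-2 μg/mL BSA-(Man)3, with BSA-only wells as background; IC50 values derived.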
row,SMILES,IC50 [nM]
1,OC[C@H]1O[C@H](c2cccc([C@H]3O[C@H](CO)[C@@H](O)[C@H](O)[C@@H]3O)c2)[C@@H](O)[C@@H](O)[C@@H]1O [Compound 2],4950
